Test results: ChEMBL document CHEMBL1140917, “Structure-activity relationships of antitubercular nitroimidazoles. 1. Structural features associated with aerobic and anaerobic activities of 4- and 5-nitroimidazoles” (2009)

Assays:
Format in all cases: functional
[1] = test system: Mycobacterium tuberculosis; assay: Antimycobacterial activity against Mycobacterium tuberculosis with cofactor F420 mutant
[2] = test system: Mycobacterium tuberculosis; assay: Antimycobacterial activity against Mycobacterium tuberculosis with deazaflavin-dependent nitroreductase mutant
[3] = test system: Mycobacterium tuberculosis; assay: Antimycobacterial activity against Mycobacterium tuberculosis with deazaflavin-dependent nitroreductase mutant under anaerobic condition

## Cc1ncc([N+](=O)[O-])n1CCOCc1ccc(OC(F)(F)F)cc1
[1]
  MIC: >100 µM
[2]
  MIC: >100 µM
[3]
  MAC: 125 µM

## O=[N+]([O-])c1cn2c(n1)C=C[C@@H](OCc1ccc(OC(F)(F)F)cc1)C2
[1]
  MIC: >100 µM
[2]
  MIC: >100 µM
[3]
  MAC: 62.5 µM

## Cc1nc([N+](=O)[O-])cn1CCOCc1ccc(OC(F)(F)F)cc1
[1]
  MIC: >100 µM
[2]
  MIC: >100 µM
[3]
  MAC: >500 µM

## COc1ncc([N+](=O)[O-])n1CCO
[1]
  MIC: >100 µM
[2]
  MIC: >100 µM
[3]
  MAC: >500 µM

## O=[N+]([O-])c1cnc2n1C[C@H](OCc1ccc(OC(F)(F)F)cc1)CO2
[1]
  MIC: >100 µM
[2]
  MIC: >100 µM
[3]
  MAC: 62.5 µM

## O=[N+]([O-])c1cn2c(n1)OC[C@@H](OCc1ccc(OC(F)(F)F)cc1)C2 [PRETOMANID]
[1]
  MIC: >100 µM
[2]
  MIC: >100 µM
[3]
  MAC: >500 µM

## Cc1ncc([N+](=O)[O-])n1CCO [METRONIDAZOLE]
[1]
  MIC: >100 µM
[2]
  MIC: >100 µM

## COc1nc([N+](=O)[O-])cn1CCOCc1ccc(OC(F)(F)F)cc1
[1]
  MIC: >100 µM
[2]
  MIC: >100 µM
[3]
  MAC: 250 µM

## O=[N+]([O-])c1cnc2n1C[C@H](O)CC2
[1]
  MIC: >100 µM
[2]
  MIC: >100 µM
[3]
  MAC: >500 µM

## O=[N+]([O-])c1cn2c(n1)OC[C@@H](O)C2
[1]
  MIC: >100 µM
[2]
  MIC: >100 µM
[3]
  MAC: 500 µM

## FC(F)(F)Oc1ccc(CO[C@@H]2COc3nccn3C2)cc1
[1]
  MIC: >100 µM
[2]
  MIC: >100 µM
[3]
  MAC: >500 µM

## O=[N+]([O-])c1cnc2n1C[C@@H](O)CC2
[1]
  MIC: >100 µM
[2]
  MIC: >100 µM
[3]
  MAC: >100 µM

## CO[C@@H]1COc2nc([N+](=O)[O-])cn2C1
[1]
  MIC: >100 µM
[2]
  MIC: >100 µM
[3]
  MAC: 250 µM

## O=[N+]([O-])c1cn2c(n1)CC[C@@H](OCc1ccc(OC(F)(F)F)cc1)C2
[1]
  MIC: >100 µM
[2]
  MIC: >100 µM
[3]
  MAC: 250 µM

## O=[N+]([O-])c1cnc2n1C[C@H](O)CO2
[1]
  MIC: >100 µM
[2]
  MIC: >100 µM
[3]
  MAC: 125 µM

## Cc1nc([N+](=O)[O-])cn1CCO
[1]
  MIC: >100 µM
[2]
  MIC: >100 µM
[3]
  MAC: >500 µM
